Measurements reported in the NIST ThermoML archive (doi:10.1016/j.fluid.2019.05.015).

How the values were obtained:
[1] = refractive index (Na D-line) (dimensionless); xn = mol fraction of the nth substance listed; conditions: 100 kPa, Liquid, Standard Abbe refractometry
[2] = mean ionic activity coefficient (dimensionless); mn = molality of the nth substance listed, in mol/kg; conditions: 100 kPa, Liquid, Electrochemical cell potential

CCn1cc[n+](C)c1.[Br-] [1-ethyl-3-methylimidazolium bromide] + O
Conditions	mean ionic activity coefficient	refractive index
[1], 298.2 K, x2 = 0.0971	–	1.549
[1], 298.2 K, x2 = 0.188	–	1.545
[1], 298.2 K, x2 = 0.2981	–	1.536
[1], 298.2 K, x2 = 0.3857	–	1.5335
[1], 298.2 K, x2 = 0.471	–	1.525
[1], 298.2 K, x2 = 0.5966	–	1.5115
[1], 298.2 K, x2 = 0.6884	–	1.4985
[1], 298.2 K, x2 = 0.7863	–	1.4625
[1], 298.2 K, x2 = 0.8884	–	1.4305
[1], 308.2 K, x2 = 0.0926	–	1.5455
[1], 308.2 K, x2 = 0.1801	–	1.5425
[1], 308.2 K, x2 = 0.2947	–	1.534
[1], 308.2 K, x2 = 0.3829	–	1.53
[1], 308.2 K, x2 = 0.4714	–	1.5235
[1], 308.2 K, x2 = 0.5983	–	1.509
[1], 308.2 K, x2 = 0.6871	–	1.4955
[1], 308.2 K, x2 = 0.7851	–	1.4595
[1], 308.2 K, x2 = 0.888	–	1.427
[1], 318.2 K, x2 = 0.0923	–	1.5425
[1], 318.2 K, x2 = 0.1796	–	1.54
[1], 318.2 K, x2 = 0.2939	–	1.531
[1], 318.2 K, x2 = 0.382	–	1.5265
[1], 318.2 K, x2 = 0.4704	–	1.521
[1], 318.2 K, x2 = 0.5974	–	1.5065
[1], 318.2 K, x2 = 0.6862	–	1.4925
[1], 318.2 K, x2 = 0.7844	–	1.458
[1], 318.2 K, x2 = 0.8876	–	1.425
[2], 298.2 K, m1 = 0.021	0.8957	–
[2], 298.2 K, m1 = 0.0419	0.748	–
[2], 298.2 K, m1 = 0.0585	0.7149	–
[2], 298.2 K, m1 = 0.0791	0.6998	–
[2], 298.2 K, m1 = 0.0995	0.6908	–
[2], 298.2 K, m1 = 0.2548	0.5703	–
[2], 298.2 K, m1 = 0.4968	0.4953	–
[2], 298.2 K, m1 = 0.7334	0.45	–
[2], 298.2 K, m1 = 1.003	0.397	–
[2], 298.2 K, m1 = 1.244	0.378	–
[2], 298.2 K, m1 = 1.489	0.361	–
[2], 308.2 K, m1 = 0.0211	0.8798	–
[2], 308.2 K, m1 = 0.042	0.8527	–
[2], 308.2 K, m1 = 0.0586	0.8229	–
[2], 308.2 K, m1 = 0.0793	0.769	–
[2], 308.2 K, m1 = 0.0999	0.7385	–
[2], 308.2 K, m1 = 0.2555	0.6299	–
[2], 308.2 K, m1 = 0.4948	0.5249	–
[2], 308.2 K, m1 = 0.7324	0.4686	–
[2], 308.2 K, m1 = 1.003	0.42	–
[2], 308.2 K, m1 = 1.245	0.39	–
[2], 308.2 K, m1 = 1.489	0.375	–
[2], 308.2 K, m1 = 1.744	0.363	–
[2], 308.2 K, m1 = 1.995	0.346	–
[2], 308.2 K, m1 = 2.251	0.322	–
[2], 308.2 K, m1 = 2.499	0.307	–
[2], 318.2 K, m1 = 0.0093	0.8999	–
[2], 318.2 K, m1 = 0.0187	0.8927	–
[2], 318.2 K, m1 = 0.0418	0.8287	–
[2], 318.2 K, m1 = 0.0603	0.7921	–
[2], 318.2 K, m1 = 0.0786	0.7691	–
[2], 318.2 K, m1 = 0.1014	0.7508	–
[2], 318.2 K, m1 = 0.2568	0.6434	–
[2], 318.2 K, m1 = 0.4956	0.5317	–
[2], 318.2 K, m1 = 0.7332	0.4709	–
[2], 318.2 K, m1 = 1.003	0.423	–
[2], 318.2 K, m1 = 1.244	0.399	–
[2], 318.2 K, m1 = 1.487	0.385	–
[2], 318.2 K, m1 = 1.743	0.366	–
[2], 318.2 K, m1 = 1.995	0.344	–
[2], 318.2 K, m1 = 2.251	0.33	–
[2], 318.2 K, m1 = 2.5	0.32	–
